{"source": "patent US20120277286A1", "about": "“COMPOSITIONS AND METHODS FOR THE TREATMENT OR PREVENTION OF MITOCHONDRIAL DISEASES” (The Government of the USA, as represented by the Secretary, …, priority 2009, published 2012)", "key": {"HEK293 cells": {"system": "HEK293 cells", "experiment": "Endogenous Parkin localization by immunostaining after depolarization", "type": "cell-based", "conditions": "10 μM CCCP", "experimental": "Mitochondrial fission has been linked to the function of Parkin and to the autophagy of small defective mitochondria that lack membrane potential. To test whether mitochondrial depolarization causes Parkin accumulation on mitochondria, HEK293 cells were treated with the mitochondrial uncoupler carbonyl cyanide m-chlorophenylhydrazone (CCCP). Within 1 hour of adding CCCP, endogenous Parkin was recruited to mitochondria in the majority of cells (FIG. 1B) and increased appearance in the heavy membrane pellet on Western blots (FIG. 1C). […] As with endogenous Parkin in HEK293 cells, CCCP exposure induced the redistribution of YFP-Parkin from the cytosol to the mitochondria (FIGS. 1E and F). […] The mitochondrial translocation of Parkin caused by mitochondrial depolarization was also assayed by fluorescence loss in photobleaching (FLIP).\nCultured cells seeded in borosilicate chamber slides (Thermo Fisher Scientific) were transfected or cotransfected with YFP-Parkin, ECFP-Parkin, mCherry-Parkin, DsRed-Mito (Clontech Laboratories, Inc.), pcDNA3.1 (Invitrogen), vMIA, and/or Drp1K38A constructs using Fugene 6 (Roche). Parkin-myc was a gift from M. Cookson (National Institutes of Health, Bethesda, Md.). Cells were fixed 12-24 hours after transfection with 4% paraformaldehyde in PBS. […]"}, "M17 cells": {"system": "M17 cells", "experiment": "Mitochondrial mass by Mitotracker Green staining", "type": "cell-based, human", "conditions": "control shRNA (CCCP line) or PINK1 shRNA", "experimental": "To test whether PINK1 expression affects mitochondrial turnover in the presence of endogenous levels of Parkin, the control shRNA and PINK1 shRNA M17 cells (which express moderate levels of Parkin) were treated with DMSO or CCCP for 24 hours and measured their relative mitochondrial mass by Mitotracker Green (MTG) staining and flow cytometry. MTG, a sensitive measure of mitochondrial mass, stains mitochondrial lipid in a membrane potential independent manner and has been used to measure mitochondrial mass of depolarized mitochondria previously (Hristova et al., J Biol Chem. In press; Whitworth et al., Dis Model Mech 1: 168-174, 2008). […] To more directly assay mitochondrial turnover in control and PINK1 shRNA M17 cells, the cells were pulsed with MTG and loss of MTG intensity was tracked at 0, 16, and 24 hours in the presence of CCCP. Consistent with the hypothesis that endogenous PINK1 promotes the degradation of depolarized mitochondria, Mitotracker Green intensity decreased more slowly in PINK1 shRNA cells when compared with control shRNA cells, treated with CCCP (0.58±0.07 vs. 0.33±0.07 relative MTG intensity at 24 hours) (FIG. 12F)."}}}
{"smiles": "N#CC(C#N)=NNc1cccc(Cl)c1", "note": "[CCCP, carbonyl cyanide m-chlorophenylhydrazone]", "values": [{"measurement": "time to recruitment of endogenous Parkin to mitochondria in the majority of cells", "setting": "HEK293 cells", "result": "≤ 1", "unit": "h"}, {"measurement": "relative MTG intensity", "setting": "M17 cells; M17 cells pulsed with MTG, CCCP, at 24 hours", "result": "0.33±0.07"}, {"measurement": "change in mitochondrial mass, CCCP vs. DMSO", "setting": "M17 cells; M17 cells, 24 hours, MTG flow cytometry", "result": "−22.4±12.6", "unit": "%"}]}
